Calls of active or inactive are those of the source. The rule behind the calls is not given here.
What was measured:
[1] = target: T1, Protein deacetylase HDAC6 (Homo sapiens, UniProt Q9UBN7); assay: Inhibition of recombinant human full length HDAC6 using Boc-Lys (Ac)-AMC as substrate incubated for 120 mins by fluorescence analysis
T1 sequence (Q9UBN7 whole entry): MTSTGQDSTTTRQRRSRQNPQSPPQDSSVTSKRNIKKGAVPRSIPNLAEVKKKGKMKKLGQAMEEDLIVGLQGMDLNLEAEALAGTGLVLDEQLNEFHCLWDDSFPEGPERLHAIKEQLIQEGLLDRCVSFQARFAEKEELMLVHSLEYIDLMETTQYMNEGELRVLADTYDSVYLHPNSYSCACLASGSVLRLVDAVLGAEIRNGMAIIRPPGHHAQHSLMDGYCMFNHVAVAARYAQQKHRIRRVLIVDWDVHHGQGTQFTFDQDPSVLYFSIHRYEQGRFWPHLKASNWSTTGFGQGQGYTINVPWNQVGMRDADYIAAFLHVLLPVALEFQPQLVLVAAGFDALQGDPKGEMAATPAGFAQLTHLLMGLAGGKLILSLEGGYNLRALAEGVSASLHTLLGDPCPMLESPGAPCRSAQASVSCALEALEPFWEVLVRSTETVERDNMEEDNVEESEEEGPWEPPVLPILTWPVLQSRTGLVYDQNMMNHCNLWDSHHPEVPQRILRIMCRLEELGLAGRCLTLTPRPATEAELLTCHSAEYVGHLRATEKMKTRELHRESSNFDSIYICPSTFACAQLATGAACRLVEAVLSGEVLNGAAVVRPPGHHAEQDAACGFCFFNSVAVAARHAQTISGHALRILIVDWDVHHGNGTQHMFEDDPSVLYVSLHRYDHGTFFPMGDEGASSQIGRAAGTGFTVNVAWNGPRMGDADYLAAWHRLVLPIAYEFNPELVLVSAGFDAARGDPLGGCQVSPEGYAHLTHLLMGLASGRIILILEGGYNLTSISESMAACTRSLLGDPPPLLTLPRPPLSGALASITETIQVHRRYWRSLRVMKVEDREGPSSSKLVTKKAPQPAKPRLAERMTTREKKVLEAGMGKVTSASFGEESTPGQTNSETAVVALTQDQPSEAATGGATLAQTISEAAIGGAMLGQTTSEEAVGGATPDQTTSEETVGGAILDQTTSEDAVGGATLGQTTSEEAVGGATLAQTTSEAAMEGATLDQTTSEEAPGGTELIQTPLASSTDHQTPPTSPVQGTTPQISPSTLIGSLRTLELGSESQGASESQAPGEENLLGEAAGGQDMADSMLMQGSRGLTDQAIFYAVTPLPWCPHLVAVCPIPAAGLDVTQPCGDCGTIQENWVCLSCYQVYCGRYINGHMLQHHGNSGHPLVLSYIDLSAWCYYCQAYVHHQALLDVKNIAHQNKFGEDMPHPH

Mus musculus [2] = assay: Anti-pulmonary fibrosis activity in bleomycin-induced C57BL/6 mouse model of pulmonary fibrosis assessed as decrease in disturbance of alveolar structure in lung at 100 mg/kg, ip for 3 weeks by H and E staining based fluorescence microscopic analysis; type: functional, organism-based
Mus musculus [3] = assay: Anti-pulmonary fibrosis activity in bleomycin-induced C57BL/6 mouse model of pulmonary fibrosis assessed as decrease in collapse of the alveolar cavity in lung at 100 mg/kg, ip for 3 weeks by Masson trichrome staining based microscopic analysis; type: functional, organism-based
Mus musculus [4] = assay: Anti-pulmonary fibrosis activity in bleomycin-induced C57BL/6 mouse model of pulmonary fibrosis assessed as decrease in structural damage in lung at 100 mg/kg, ip for 3 weeks by Masson trichrome staining based microscopic analysis; type: functional, organism-based
Mus musculus [5] = assay: Anti-pulmonary fibrosis activity in bleomycin-induced C57BL/6 mouse model of pulmonary fibrosis assessed as decrease in collagen level in lung at 100 mg/kg, ip for 3 weeks by Masson trichrome staining based microscopic analysis; type: functional, organism-based
Mus musculus [6] = assay: Anti-pulmonary fibrosis activity in bleomycin-induced C57BL/6 mouse model of pulmonary fibrosis assessed as decrease in inflammatory cell infiltration in lung at 100 mg/kg, ip for 3 weeks by H and E staining based fluorescence microscopic analysis; type: functional, organism-based
Mus musculus [7] = assay: Anti-pulmonary fibrosis activity in bleomycin-induced C57BL/6 mouse model of pulmonary fibrosis assessed as decrease in fibrosis scars in lung at 100 mg/kg, ip for 3 weeks by H and E staining based fluorescence microscopic analysis; type: functional, organism-based
Mus musculus [8] = assay: Anti-pulmonary fibrosis activity in bleomycin-induced C57BL/6 mouse model of pulmonary fibrosis assessed as decrease in thickening of the alveolar wall in lung at 100 mg/kg, ip for 3 weeks by Masson trichrome staining based microscopic analysis; type: functional, organism-based
Mus musculus [9] = assay: Anti-pulmonary fibrosis activity in bleomycin-induced C57BL/6 mouse model of pulmonary fibrosis assessed as increase in body weight at 100 mg/kg, ip for 3 weeks; type: functional, organism-based
Mus musculus [10] = assay: Anti-pulmonary fibrosis activity in bleomycin-induced C57BL/6 mouse model of pulmonary fibrosis assessed as decrease in thickening of the alveolar wall in lung at 100 mg/kg, ip for 3 weeks by H and E staining based fluorescence microscopic analysis; type: functional, organism-based
Mus musculus [11] = assay: Anti-pulmonary fibrosis activity in bleomycin-induced C57BL/6 mouse model of pulmonary fibrosis assessed as decrease in collapse of the alveolar cavity in lung at 100 mg/kg, ip for 3 weeks by H and E staining based fluorescence microscopic analysis; type: functional, organism-based
Mus musculus [12] = assay: Anti-pulmonary fibrosis activity in bleomycin-induced C57BL/6 mouse model of pulmonary fibrosis assessed as decrease structural damage in lung at 100 mg/kg, ip for 3 weeks by H and E staining based fluorescence microscopic analysis; type: functional, organism-based
Histone deacetylase 1 = Histone deacetylase 1 (Homo sapiens, UniProt Q13547); assay: Inhibition of C-terminal His6/Flag-tagged recombinant human full length HDAC1 using Boc-Lys (Ac)-AMC as substrate incubated for 120 mins by fluorescence analysis
Histone deacetylase 4 = Histone deacetylase 4 (Homo sapiens, UniProt P56524); assay: Inhibition of recombinant human HDAC4 using Boc-Lys (Ac)-AMC as substrate incubated for 120 mins by fluorescence analysis
[13] = target: T2, Polyamine deacetylase HDAC10 (Homo sapiens, UniProt Q969S8); assay: Inhibition of N-terminal FLAG-tagged recombinant human HDAC10 (2 to 631 residues) expressed in baculovirus sf9 insect cells expression system using Boc-Lys (Ac)-AMC as substrate incubated for 120 mins by fluorescence analysis
T2 sequence (Q969S8 whole entry): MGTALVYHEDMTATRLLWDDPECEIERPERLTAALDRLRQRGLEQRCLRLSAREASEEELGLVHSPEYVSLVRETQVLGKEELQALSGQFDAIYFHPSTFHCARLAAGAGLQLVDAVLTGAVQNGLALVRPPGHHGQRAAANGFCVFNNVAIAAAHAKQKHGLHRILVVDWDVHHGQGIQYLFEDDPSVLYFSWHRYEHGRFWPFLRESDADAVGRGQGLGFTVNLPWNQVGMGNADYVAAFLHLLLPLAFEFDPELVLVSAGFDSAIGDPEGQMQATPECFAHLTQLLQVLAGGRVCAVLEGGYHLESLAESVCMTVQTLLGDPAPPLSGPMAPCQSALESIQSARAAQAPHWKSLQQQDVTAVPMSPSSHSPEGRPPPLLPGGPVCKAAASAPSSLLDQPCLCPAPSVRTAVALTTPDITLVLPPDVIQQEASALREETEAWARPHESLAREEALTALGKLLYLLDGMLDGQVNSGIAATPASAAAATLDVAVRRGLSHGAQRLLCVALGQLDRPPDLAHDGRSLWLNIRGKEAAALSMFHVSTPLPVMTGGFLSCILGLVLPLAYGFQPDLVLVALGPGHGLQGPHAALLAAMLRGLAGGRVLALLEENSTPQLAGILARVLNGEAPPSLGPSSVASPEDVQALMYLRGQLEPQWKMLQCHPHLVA

Histone deacetylase 2 = Histone deacetylase 2 (Homo sapiens, UniProt Q92769); assay: Inhibition of recombinant human full length HDAC2 using Boc-Lys (Ac)-AMC as substrate incubated for 120 mins by fluorescence analysis
Histone deacetylase 7 = target: T3, Histone deacetylase 7 (Homo sapiens, UniProt Q8WUI4); assay: Inhibition of N-terminal GST-tagged recombinant human HDAC7 (518 to end residues) expressed in baculovirus expression system using Boc-Lys (Tfa)-AMC as substrate incubated for 120 mins by fluorescence analysis
T3 sequence (Q8WUI4 whole entry): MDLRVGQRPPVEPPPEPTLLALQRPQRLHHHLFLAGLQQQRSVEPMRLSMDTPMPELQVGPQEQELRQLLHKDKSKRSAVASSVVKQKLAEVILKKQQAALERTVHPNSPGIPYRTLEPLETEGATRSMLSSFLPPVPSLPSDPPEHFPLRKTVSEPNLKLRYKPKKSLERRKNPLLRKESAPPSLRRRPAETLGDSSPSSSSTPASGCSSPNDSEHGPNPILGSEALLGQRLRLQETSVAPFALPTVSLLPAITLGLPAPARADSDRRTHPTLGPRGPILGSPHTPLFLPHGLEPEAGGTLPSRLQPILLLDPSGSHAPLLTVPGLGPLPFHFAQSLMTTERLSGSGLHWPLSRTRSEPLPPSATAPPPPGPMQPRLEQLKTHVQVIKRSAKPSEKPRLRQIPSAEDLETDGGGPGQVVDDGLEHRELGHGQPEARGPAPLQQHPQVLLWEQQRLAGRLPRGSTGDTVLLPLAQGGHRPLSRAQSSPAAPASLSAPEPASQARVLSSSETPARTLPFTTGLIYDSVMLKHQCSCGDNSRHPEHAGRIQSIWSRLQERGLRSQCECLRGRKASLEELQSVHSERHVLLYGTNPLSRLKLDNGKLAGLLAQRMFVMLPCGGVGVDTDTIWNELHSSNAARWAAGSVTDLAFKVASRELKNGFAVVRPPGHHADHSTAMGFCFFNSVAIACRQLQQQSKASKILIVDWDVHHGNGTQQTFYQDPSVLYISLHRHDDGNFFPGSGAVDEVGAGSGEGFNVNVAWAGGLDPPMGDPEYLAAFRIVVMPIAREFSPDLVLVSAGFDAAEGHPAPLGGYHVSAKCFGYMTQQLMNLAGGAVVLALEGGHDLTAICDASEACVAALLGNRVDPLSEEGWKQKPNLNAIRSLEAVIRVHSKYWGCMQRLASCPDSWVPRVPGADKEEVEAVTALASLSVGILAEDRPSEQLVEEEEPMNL

Homo sapiens = organism: Homo sapiens; assay: Selectivity index, ratio IC50 for C-terminal His6/Flag-tagged recombinant human full length HDAC1 to IC50 for inhibition of recombinant human full length HDAC6
Histone deacetylase 11 = target: T4, Histone deacetylase 11 (Homo sapiens, UniProt Q96DB2); assay: Inhibition of recombinant human full length HDAC11 using Boc-Lys (Tfa)-AMC as substrate incubated for 120 mins by fluorescence analysis
T4 sequence (Q96DB2 whole entry): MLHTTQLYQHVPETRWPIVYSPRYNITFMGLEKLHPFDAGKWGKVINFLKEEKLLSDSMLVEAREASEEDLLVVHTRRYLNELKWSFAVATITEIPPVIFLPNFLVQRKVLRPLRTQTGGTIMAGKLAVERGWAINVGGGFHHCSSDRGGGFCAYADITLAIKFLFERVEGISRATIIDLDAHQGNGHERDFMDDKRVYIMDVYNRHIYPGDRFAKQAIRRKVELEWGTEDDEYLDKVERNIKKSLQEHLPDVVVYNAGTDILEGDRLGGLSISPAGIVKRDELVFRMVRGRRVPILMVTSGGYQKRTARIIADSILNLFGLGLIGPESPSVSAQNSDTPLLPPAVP

Chain of Histone deacetylase 2 (Q92769 whole entry): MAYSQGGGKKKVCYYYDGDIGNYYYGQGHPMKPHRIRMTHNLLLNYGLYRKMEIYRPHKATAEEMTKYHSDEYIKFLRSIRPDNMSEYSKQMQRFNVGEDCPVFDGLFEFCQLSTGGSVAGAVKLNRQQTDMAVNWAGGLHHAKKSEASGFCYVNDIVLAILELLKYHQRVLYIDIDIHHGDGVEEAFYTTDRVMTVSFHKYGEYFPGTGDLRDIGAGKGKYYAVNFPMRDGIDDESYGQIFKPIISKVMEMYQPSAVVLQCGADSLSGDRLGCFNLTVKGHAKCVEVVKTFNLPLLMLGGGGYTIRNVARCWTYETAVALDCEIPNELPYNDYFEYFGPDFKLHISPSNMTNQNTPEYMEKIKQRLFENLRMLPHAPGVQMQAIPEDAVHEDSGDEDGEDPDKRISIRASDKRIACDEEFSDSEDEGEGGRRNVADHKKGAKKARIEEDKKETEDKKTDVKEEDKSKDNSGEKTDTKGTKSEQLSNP
Chain of Histone deacetylase 4 (P56524 whole entry, the tested form may be a part): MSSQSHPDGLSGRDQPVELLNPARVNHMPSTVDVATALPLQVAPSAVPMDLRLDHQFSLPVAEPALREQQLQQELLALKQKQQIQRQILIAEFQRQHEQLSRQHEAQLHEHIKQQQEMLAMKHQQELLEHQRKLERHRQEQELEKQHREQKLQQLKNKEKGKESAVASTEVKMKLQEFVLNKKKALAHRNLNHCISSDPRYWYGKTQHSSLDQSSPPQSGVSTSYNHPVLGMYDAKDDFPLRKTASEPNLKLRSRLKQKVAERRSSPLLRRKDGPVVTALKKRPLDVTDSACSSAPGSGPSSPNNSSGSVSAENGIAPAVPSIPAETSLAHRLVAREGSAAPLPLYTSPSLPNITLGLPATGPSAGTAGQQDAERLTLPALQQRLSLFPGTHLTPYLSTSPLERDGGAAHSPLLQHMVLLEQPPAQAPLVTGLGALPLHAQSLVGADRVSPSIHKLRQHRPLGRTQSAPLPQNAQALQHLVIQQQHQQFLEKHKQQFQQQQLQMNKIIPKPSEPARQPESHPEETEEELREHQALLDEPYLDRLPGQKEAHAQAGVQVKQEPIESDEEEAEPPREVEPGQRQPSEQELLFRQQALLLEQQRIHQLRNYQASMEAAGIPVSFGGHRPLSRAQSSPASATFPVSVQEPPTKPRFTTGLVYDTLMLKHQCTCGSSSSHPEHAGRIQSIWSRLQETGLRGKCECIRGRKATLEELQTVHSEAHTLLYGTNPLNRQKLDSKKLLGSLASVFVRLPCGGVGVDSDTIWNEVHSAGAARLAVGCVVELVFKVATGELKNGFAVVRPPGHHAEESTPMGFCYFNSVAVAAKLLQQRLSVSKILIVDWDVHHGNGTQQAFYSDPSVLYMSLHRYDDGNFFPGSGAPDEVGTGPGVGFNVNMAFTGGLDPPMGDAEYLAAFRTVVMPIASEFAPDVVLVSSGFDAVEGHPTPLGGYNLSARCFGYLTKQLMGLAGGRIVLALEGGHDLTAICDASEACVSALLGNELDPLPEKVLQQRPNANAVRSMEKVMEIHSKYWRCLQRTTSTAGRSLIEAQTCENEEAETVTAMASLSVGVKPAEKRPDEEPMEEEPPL
Chain of Histone deacetylase 1 (Q13547 whole entry): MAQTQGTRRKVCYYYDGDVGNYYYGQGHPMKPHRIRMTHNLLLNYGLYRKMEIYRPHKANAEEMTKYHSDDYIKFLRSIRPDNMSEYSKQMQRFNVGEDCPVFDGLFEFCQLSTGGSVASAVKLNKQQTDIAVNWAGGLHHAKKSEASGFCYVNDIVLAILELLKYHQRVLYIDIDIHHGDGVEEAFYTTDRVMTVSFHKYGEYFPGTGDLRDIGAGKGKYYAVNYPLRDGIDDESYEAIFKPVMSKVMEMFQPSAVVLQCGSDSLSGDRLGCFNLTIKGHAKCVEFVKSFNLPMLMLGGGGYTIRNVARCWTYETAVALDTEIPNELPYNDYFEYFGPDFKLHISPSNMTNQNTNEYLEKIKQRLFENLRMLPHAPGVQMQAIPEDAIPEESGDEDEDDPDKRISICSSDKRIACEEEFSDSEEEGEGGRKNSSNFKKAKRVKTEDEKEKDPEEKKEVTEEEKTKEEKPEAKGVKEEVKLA

With COc1cc2c(cc1O)CN1C(=O)CC[C@H]1C(=O)N2Cc1ccccc1C(=O)NO the IC50 [1] was 279 nM.
With Cc1ccc(=O)n(-c2ccccc2)c1 the Activity (Mus musculus [2]) was “Active”, the Activity (Mus musculus [3]) was “inactive” and the Activity (Mus musculus [4]) was “inactive”. The Activity (Mus musculus [5]) was “Active”, the Activity (Mus musculus [6]) was “Active” and the Activity (Mus musculus [7]) was “Active”. For the same compound, the Activity (Mus musculus [8]) was “inactive”, the Activity (Mus musculus [9]) was “Active” and the Activity (Mus musculus [10]) was “Active”. The Activity (Mus musculus [11]) was “Active” and the Activity (Mus musculus [12]) was “Active”.
Compound O=C(Cc1ccc(CN2C(=O)[C@@H]3CCCN3Cc3ccccc32)cc1)NO has an IC50 [1] of 288 nM.
In the case of O=C(NO)c1ccccc1CN1C(=O)[C@@H]2CCCN2Cc2ccccc21, the IC50 [1] is reported as greater than 300 nM.
Compound COc1cc2c(cc1OCc1ccccc1)CN1C(=O)CC[C@H]1C(=O)N2CCCCCCCC(=O)NO has an IC50 [1] of 275 nM.
Compound COc1cc2c(cc1OCc1ccccc1)CN1C(=O)CC[C@H]1C(=O)N2Cc1ccccc1C(=O)NO has an IC50 [1] of 204 nM.
With O=C(CCCCCN1C(=O)[C@@H]2CCCN2Cc2ccccc21)NO the IC50 (Histone deacetylase 1) was 437 nM, the IC50 (Histone deacetylase 4) was 499 nM and the IC50 [13] was 961 nM. It also gave an IC50 (Histone deacetylase 2) of 2680 nM, an IC50 (Histone deacetylase 7) of 731 nM and a Ratio IC50 (Homo sapiens) of 51.7. For the same compound, the IC50 [1] was 8.45 nM and the IC50 (Histone deacetylase 11) was greater than 50000 nM.
With COc1cc2c(cc1OCc1ccccc1)CN1C(=O)CC[C@H]1C(=O)N2Cc1ccc(CC(=O)NO)cc1 the IC50 [1] was 22.3 nM.
In the case of COc1cc2c(cc1O)CN1C(=O)CC[C@H]1C(=O)N2CCCCCCCC(=O)NO, the IC50 [1] is reported as 176 nM.
COc1cc2c(cc1O)CN1C(=O)CC[C@H]1C(=O)N2Cc1ccc(C(=O)NO)cc1 showed an IC50 [1] of 126 nM.

Reference: ChEMBL document CHEMBL5584244, “Discovery of novel pyrrolo[2,1-c][1,4]benzodiazepine-3,11-dione (PBD) derivatives as selective HDAC6 inhibitors for the efficient treatment of idiopathic pulmonary fibrosis (IPF) in vitro and in vivo” (Eur J Med Chem, 2024)
